{"source": "paper PMC10899790", "about": "“A bromodomain-independent mechanism of gene regulation by the BET inhibitor JQ1: direct activation of nuclear receptor PXR” (Nucleic Acids Research, 2023)", "key": {"[1]": {"target": "T1, mouse PXR (mPXR) (Mus musculus, UniProt O54915)", "T1 sequence (O54915 1-431)": "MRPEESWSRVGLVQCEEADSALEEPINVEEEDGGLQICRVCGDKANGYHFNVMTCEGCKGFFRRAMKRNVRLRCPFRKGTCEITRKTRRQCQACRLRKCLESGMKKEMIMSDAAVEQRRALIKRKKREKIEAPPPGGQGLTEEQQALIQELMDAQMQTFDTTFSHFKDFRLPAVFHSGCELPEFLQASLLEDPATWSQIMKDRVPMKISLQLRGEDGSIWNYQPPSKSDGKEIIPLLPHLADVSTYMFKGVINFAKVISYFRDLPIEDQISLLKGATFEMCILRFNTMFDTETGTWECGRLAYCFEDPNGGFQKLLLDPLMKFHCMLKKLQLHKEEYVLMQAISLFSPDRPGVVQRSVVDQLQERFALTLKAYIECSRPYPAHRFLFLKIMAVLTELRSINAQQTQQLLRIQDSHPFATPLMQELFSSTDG", "details": "mPXR-transfected HepG2, 24 h; PCN as 100% control", "protocol": "Assays were performed similarly as previously described with minor modifications ([30–32]). HepG2 cells (7.5 × 10^5/well) were plated in six-well tissue culture-treated plates. The following day, cells were co-transfected with pGL3-CYP3A4-luc (2 μg/well), pRL-CMV (200 ng/well) and 100 ng/well of either empty vector (pcDNA3), pcDNA3-FLAG-PXR, pCMV6-mPXR or pGL4.53-PGK-PXR using Lipofectamine 3000 (Thermo Fisher Scientific). Twenty-four hours after transfection, cells were trypsinized and suspended in phenol red-free DMEM (Thermo Fisher Scientific) supplemented with 5% charcoal/dextran-treated FBS (HyClone), and 1 × 10^4 cells/well in 25 μl media were added to white 384-well plates. […] After 24 h, the Dual-Glo Luciferase Assay System (Promega) and EnVision microplate reader (PerkinElmer) were used to measure firefly and Renilla luciferase activities. CMV-driven Renilla luciferase was used as an indicator of general transcriptional modulation by the test compounds and is plotted as fold change (FC) relative to DMSO controls. Assays utilizing pGL4.54[luc2/TK], pGL4.53[luc2/PGK], or pGL4.13[luc2/SV40] were similarly performed and normalized. For the PXR-responsive CYP3A4-luciferase reporter, the measured relative light units (RLU) were normalized for each well using equation (1),\nRLUT0901317 represents the measured RLU from wells containing 1 μM T0901317. […]"}, "[2]": {"target": "T2, PXR LBD (Homo sapiens, UniProt O75469)", "T2 construct": "GST-PXR LBD protein (cat. # PV4841) were purchased from Thermo Fisher Scientific; purchased Thermo Fisher Scientific PV4841", "T2 sequence (O75469 146-433 limits assumed)": "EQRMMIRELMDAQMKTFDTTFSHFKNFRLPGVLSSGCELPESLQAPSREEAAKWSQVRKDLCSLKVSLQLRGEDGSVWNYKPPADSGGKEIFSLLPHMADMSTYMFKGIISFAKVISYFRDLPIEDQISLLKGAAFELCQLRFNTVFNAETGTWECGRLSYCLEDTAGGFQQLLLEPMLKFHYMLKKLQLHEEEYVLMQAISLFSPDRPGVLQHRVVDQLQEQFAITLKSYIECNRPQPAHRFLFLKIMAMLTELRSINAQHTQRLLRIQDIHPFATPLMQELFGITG", "test": "TR-FRET PXR LBD SRC-1 recruitment assay", "format": "biochemical", "details": "percent relative to 10 μM T0901317 and DMSO", "protocol": "The TR-FRET PXR LBD SRC-1 recruitment assay measures PXR LBD interaction with a fluorescently labeled SRC-1 peptide (Supplementary Figure S1) and was performed as previously described with minor modifications ([23]). […] FAM-SRC-1 peptide solution (15 μl/well, 133.3 nM in assay buffer) was dispensed into 384-well black low-volume assay plates. An Echo 650 Acoustic Liquid Handler then dispensed 60 nl/well of compound stocks or DMSO. […] The plates were shaken at 900 rpm (80 × g) on an IKA MTS 2/4 digital microtiter shaker for 1 min then centrifuged at 1000 rpm (201 × g) for 30 s in an Eppendorf 5810 centrifuge equipped with an A-4-62 swing-bucket rotor. The plates were protected from light exposure and incubated for 1 h at room temperature (RT). After incubation, the TR-FRET signal from each well was collected with a PHERAstar FS Microplate Reader (BMG Labtech). The measured relative fluorescence units (RFU) were normalized for each well using equation (2),"}}, "note": "“Also recorded” adds a separate entry of the source.", "data": [{"smiles": "Cc1sc2c(c1C)C(c1ccc(Cl)cc1)=N[C@@H](CC(=O)OC(C)(C)C)c1nnc(C)n1-2", "note": "[JQ1, (+)-JQ1]", "values": [{"measurement": "activation of CYP3A4-luciferase reporter in the presence of mPXR", "setting": "[1]", "result": "did not activate the CYP3A4-luciferase reporter in the presence of mPXR"}, {"measurement": "recruitment of SRC-1 peptide to purified PXR LBD", "setting": "[2]", "result": "induced SRC-1 recruitment; also recorded: JQ1 > birabresib > CPI-203"}]}]}
